“And” between values parts separate entries of the source, which are not always exact repeats. Equal values may be shown once.
Test: rat acute oral toxicity
Details: in vivo
From the text: […]The data set underlying the modeling effort for this project was initially compiled by NICEATM and U.S. EPA’s CCTE. Briefly, LD50 data were collected from rat acute oral systemic toxicity tests, including limit tests, ranges/confidence intervals, and discrete LD50 values. The full data set included 21,200 LD50 entries for 15,688 substances. […] Data were reviewed to ensure that LD50 values with obvious errors in the extracted data such as unit conversion errors (e.g., comma and decimal separator misplacements) were either fixed or removed. After this review, 16,209 LD50 values remained. Many of the chemicals represented had multiple LD50 entries, requiring that a single representative value per Chemical Abstracts Service Registry Number (CASRN) identifier be defined to facilitate modeling efforts. Based on ATWG feedback and to define the representative LD50 as a protective value while accounting for the distribution across multiple LD50s, the median of the lowest quartile was computed using only discrete LD50 values (omitting limit test data and range and confidence interval data). A detailed summary of the data compilation is available online on the NICEATM webpage dedicated to the collaborative modeling project (NTP 2020).
[…][…] For categorical designations, limit test and range/confidence interval LD50 data were integrated wherever possible. As such, the number of chemicals with end point values/calls varies across the modeling end points (Table 3) based on whether chemicals had representative LD50 values and/or other data. If a chemical had both, the representative value was used to determine categorical calls rather than limit test data. Some data were useable only for certain end points and categories depending on the thresholds. For example, ranges that spanned multiple hazard categories were considered only for the binary (very toxic/nontoxic) end points and omitted from rendering a determination for hazard category assignment.
[…]The final data set comprising 11,992 chemicals was split into training and evaluation sets […], respectively. This process was performed semirandomly by ordering chemicals based on the five end points (categorical and continuous LD50 values) and partitioning every fourth record into the evaluation set accordingly. This approach was taken to ensure an equivalent distribution of the LD50 values and the different hazard categories between the training and the evaluation sets without supervised sampling of the chemicals based on structures (Figure 1A). The sources of the chemical structures were also kept equivalent between the two sets, with chemical structures obtained from DSSTox, being the highest quality, representing over 75% of each set (Figure 1B).

CCCCNC(=O)OCC#CI
LD50: 1100 mg/kg

O=[N+]([O-])c1ccc(Cl)cc1
LD50: 460 mg/kg

O=P1(N(CCCl)CCCl)NCCCO1 (stereo not given)
LD50: 100 mg/kg

CC(C)=CCC/C(C)=C/CO
LD50: 3600 mg/kg

CCCCOCCOCCOC(OCCOCCOCCCC)c1ccc2c(c1)OCO2
LD50: 2940 mg/kg

CCOC(=O)c1cn2nc(OP(=S)(OCC)OCC)cc2nc1C
LD50: 151 mg/kg

CCCCCC
LD50: 25000 mg/kg

CCC(CC)Nc1c([N+](=O)[O-])cc(C)c(C)c1[N+](=O)[O-]
LD50: 1050 mg/kg

O=[N+]([O-])OCC(CO[N+](=O)[O-])O[N+](=O)[O-]
LD50: 105 mg/kg

C/C(=N\NC(=O)Nc1cc(F)cc(F)c1)c1ncccc1C(=O)O
LD50: 3300 mg/kg

Nc1ccc(Cl)c(Cl)c1
LD50: 530 mg/kg

C=CCn1c(=O)n(CC=C)c(=O)n(CC=C)c1=O
LD50: 707 mg/kg

CC[Si](Cl)(Cl)CC
LD50: 600 mg/kg

CCCCO
LD50: 790 mg/kg

NC1CCCCC1
LD50: 11 mg/kg

CC/C=C\C#N
LD50: 198 mg/kg

CCOC(=O)c1ccc(O)cc1
LD50: 4300 mg/kg

CCCC=O
LD50: 2490 mg/kg

CC1(C)C(C(=O)OC(C#N)c2cccc(Oc3ccccc3)c2)C1(C)C (stereo not given)
LD50: 66.7 mg/kg

CC(C)(O)C#N
LD50: 18.6 mg/kg

Cc1cccc([N+](=O)[O-])c1
LD50: 1070 mg/kg

C=CC(=O)NC(C)(C)CC(C)=O
LD50: 1000 mg/kg

NC(=O)c1ccccc1Cl
LD50: 1250 mg/kg

CC(C1CC1)C(O)(Cn1cncn1)c1ccc(Cl)cc1 (stereo not given)
LD50: 350 mg/kg

c1ccc2ccccc2c1
LD50: 2200 mg/kg

CC1(C)C(=O)N(Br)C(=O)N1Cl
LD50: 485 mg/kg

ClC1C(Cl)C(Cl)C(Cl)C(Cl)C1Cl (stereo not given)
LD50: 88 mg/kg and 100 mg/kg

CNS(=O)(=O)c1cc(OC)c(N)cc1OC
LD50: 815 mg/kg

C=CC(C)C#N (stereo not given)
LD50: 232 mg/kg

CC(=O)C1=C(C)[C@@H]2C[C@@]3(C1)[C@H](C)CC[C@H]3C2(C)C
LD50: 4500 mg/kg

N#CN
LD50: 134 mg/kg

COP(=O)(OC)C(O)C(Cl)(Cl)Cl (stereo not given)
LD50: 154 mg/kg

C=C(C)C(=O)O
LD50: 1060 mg/kg

CCN(CC)C(=O)SCc1ccc(Cl)cc1
LD50: 920 mg/kg

O=C(Nc1ccc(Cl)c(Cl)c1)Nc1cc(Cl)ccc1Oc1ccc(Cl)cc1S(=O)(=O)O
LD50: 476 mg/kg

C1CCSC1
LD50: 1750 mg/kg

N#CO
LD50: 567 mg/kg and 582 mg/kg

O=C(O)c1ccc2cc(O)ccc2c1
LD50: 947 mg/kg

CCN(C)C
LD50: 594 mg/kg

CNC(=S)S
LD50: 615 mg/kg

O=C(O)c1ccccc1
LD50: 1700 mg/kg

O=CC=O
LD50: 481 mg/kg

CCOP(=S)(Oc1ccc([N+](=O)[O-])cc1)c1ccccc1 (stereo not given)
LD50: 7 mg/kg

CN(C)C(=O)C(c1ccccc1)c1ccccc1
LD50: 685 mg/kg

CC1=CC(=O)CC(C)(C)C1
LD50: 1500 mg/kg

CCCCCCCCCCCCCCCCCCN
LD50: 1000 mg/kg

CCC(=O)O[C@](Cc1ccccc1)(c1ccccc1)[C@H](C)CN(C)C
LD50: 135 mg/kg

O=C(O)COc1nc(Cl)c(Cl)cc1Cl
LD50: 630 mg/kg

CC(=O)O[Si](C)(OC(C)=O)OC(C)=O
LD50: 1550 mg/kg

C=C[Si](ON=C(C)CC)(ON=C(C)CC)ON=C(C)CC
LD50: 3520 mg/kg

O=C(O)c1cc(Oc2ccc(C(F)(F)F)cc2Cl)ccc1[N+](=O)[O-]
LD50: 1300 mg/kg

Nc1c(Cl)c(F)nc(OCC(=O)O)c1Cl
LD50: 2400 mg/kg

CCOP(=O)(SC(C)CC)SC(C)CC (stereo not given)
LD50: 37.1 mg/kg

CCCCCCCCC=CCCCCCCCCN(CCO)CCO
LD50: 1260 mg/kg

Nc1ccc(Cl)cc1
LD50: 300 mg/kg

CC(C)C#N
LD50: 50 mg/kg

O=c1n(Cl)c(=O)n(Cl)c(=O)n1Cl
LD50: 406 mg/kg

ClC1=C(Cl)C2(Cl)C3C(Cl)C=CC3C1(Cl)C2(Cl)Cl (stereo not given)
LD50: 40 mg/kg

CCCCCCCCCCCCCC[N+](C)(C)Cc1ccccc1
LD50: 281 mg/kg

CCOC(=O)CC(SP(=S)(OC)OC)C(=O)OCC (stereo not given)
LD50: 1190 mg/kg

Clc1cccc(Cl)c1
LD50: 580 mg/kg

CCCCC#N
LD50: 332 mg/kg

CCOCCOC(C)=O
LD50: 2700 mg/kg

O=C(O)c1ccc(C(=O)O)cc1
LD50: 1960 mg/kg

NNC(=O)c1ccncc1
LD50: 650 mg/kg

O=Cc1ccccc1
LD50: 1300 mg/kg

CCCCN
LD50: 366 mg/kg

CC(Cl)(Cl)C(=O)O
LD50: 6940 mg/kg

NCCO
LD50: 1720 mg/kg

O=c1sc2ccccc2c(O)c1C1CC(c2ccc(-c3ccc(Br)cc3)cc2)Cc2ccccc21 (stereo not given)
LD50: 0.55 mg/kg

CCCCN(CC)C(=O)SCCC
LD50: 921 mg/kg

CCC1CO1 (stereo not given)
LD50: 500 mg/kg

CC(C)N(C(=O)SCC(Cl)=C(Cl)Cl)C(C)C
LD50: 200 mg/kg

CC(=O)C(C)=O
LD50: 1580 mg/kg

CNc1ccccc1
LD50: 716 mg/kg
